Measurements reported in publication PMC9029360, “Cyclooxygenase-Inhibiting Platinum(IV) Prodrugs with Potent Anticancer Activity” (Pharmaceutics, 2022).

What was measured:
[1] = test system: MCF10A breast cell line (non-tumour derived); assay: In vitro cytotoxicity MTT assay, non-tumour MCF10A breast; assay type: cell-based; conditions: MCF10A (non-cancerous), 72 h drug exposure, n = 3
[2] = test system: U87 glioblastoma; assay: In vitro cytotoxicity MTT assay, U87 glioblastoma; assay type: cell-based; conditions: 72 h drug exposure, n = 3
[3] = Lipophilicity by RP-HPLC (log kw); assay type: physicochemical; conditions: capacity factor extrapolated to 100% water
Method: HPLC experiments were executed on an Agilent (Melbourne, Australia) Technologies 1260 Infinity instrument equipped with a Phenomenex (Sydney, Australia) Onyx^TM Monolithic C18 reverse phase column (100 × 4.6 mm, 130 Å). The mobile phase was comprised of 0.06% TFA in water (solvent A) and 0.06% TFA in an acetonitrile-water mixture (9:1) (solvent B). A sample injection volume of 10 µL was used at a flow rate of 1 mL/min and eluted over a gradient of 0–100% for 15 min. A PDA was used to detect the eluting peaks at 254 nm. Lipophilicity experiments to determine logkw values were undertaken following previously published methods. Rather than a gradient, different isocratic ratios ranging from 28–56% of solvent B were employed and the retention times measured for each complex. Potassium iodide was used as an external dead volume marker to determine the dead time of the column. The following equation was used to calculate the capacity factors:(1) k=tr−t0/t0 where k is the capacity factor, tr is the retention time of the analyte, and t0 is the dead time. Following this, log k was plotted against the percentage of ACN. Five different concentrations of ACN were used to produce a linear plot comprised of R^2 > 0.99. This graph produced the following equation:(2) logk=Sφ+logkw where S is the slope, φ is the % ACN, and the y-intercept, represented as logkw , is the capacity factor of the compound in 100% water.
Lipophilicity studies were carried out to determine the logkw of each complex. This was ascertained through a RP-HPLC based approach whereby complexes were eluted at several isocratic ratios. In turn, retention times were employed as in Equation (1), where the capacity factor (k) was calculated. The log k value at each ratio was then plotted against the percentage of the organic solvent used in solvent B, producing a linear equation that allowed for logkw to be extrapolated (Figure S43). The logkw value represents the retention factor in a 100% aqueous solution; thus, higher values indicate more lipophilic compounds. While this method for determining lipophilicity is slightly different from the shake-flask method, it has been used previously to compare a series of complexes that are structurally similar and is fitting for this group of complexes.

[4] = test system: cisplatin-resistant ADDP ovarian (subclone of A2780 cell line); assay: In vitro cytotoxicity MTT assay, cisplatin-resistant ADDP ovarian; assay type: cell-based; conditions: ADDP (cisplatin-resistant); MTT, 72 h drug exposure, n = 3
[5] = test system: SJ-G2 glioblastoma; assay: In vitro cytotoxicity MTT assay, SJ-G2 glioblastoma; assay type: cell-based; conditions: 72 h drug exposure, n = 3
[6] = test system: Du145 prostate cancer cell line; assay: In vitro cytotoxicity MTT assay, Du145 prostate; assay type: cell-based; conditions: 72 h drug exposure, n = 3
[7] = test system: A431 skin; assay: In vitro cytotoxicity MTT assay, A431 skin; assay type: cell-based; conditions: 72 h drug exposure, n = 3
[8] = test system: BE2-C neuroblastoma; assay: In vitro cytotoxicity MTT assay, BE2-C neuroblastoma; assay type: cell-based; conditions: 72 h drug exposure, n = 3
[9] = test system: HT29 colon cancer cell line; assay: In vitro cytotoxicity MTT assay, HT29 colon; assay type: cell-based; conditions: 72 h drug exposure, n = 3
[10] = test system: MIA pancreas; assay: In vitro cytotoxicity MTT assay, MIA pancreas; assay type: cell-based; conditions: 72 h drug exposure, n = 3
[11] = test system: MCF-7 breast; assay: In vitro cytotoxicity MTT assay, MCF-7 breast; assay type: cell-based; conditions: 72 h drug exposure, n = 3
[12] = test system: A2780 ovarian; assay: In vitro cytotoxicity MTT assay, A2780 ovarian; assay type: cell-based; conditions: 72 h drug exposure, n = 3
[13] = test system: H460 lung; assay: In vitro cytotoxicity MTT assay, H460 lung; assay type: cell-based; conditions: 72 h drug exposure, n = 3
[14] = Preliminary NMR reduction study with ascorbic acid; assay type: physicochemical; conditions: D2O with 10X PBS, 37 °C
Method: Given that 1–4 were designed on the premise of functionating as prodrugs, it is anticipated that these complexes be reduced to platinum(II) and release their respective axial ligands, which will allow each component to exert its activity. To explore this possibility, preliminary NMR reduction studies were undertaken for 3. The sample was prepared in D2O with 10X PBS before ascorbic acid was added, and the sample was monitored by ^1H NMR at 37 °C. After the addition of ascorbic acid, resonances corresponding to the platinum(II) species appeared, with the intensities increasing over time, while the peaks correlating to platinum(IV) species decreased (Figure 5). Following this, ^195Pt NMR was carried out in order to confirm that the platinum(II) species remained intact.

Row | Compound | GI50 [1] | GI50 [2] | Log kw [3] | GI50 [4] | GI50 [5] | GI50 [6] | GI50 [7] | GI50 [8] | GI50 [9] | GI50 [10] | GI50 [11] | GI50 [12] | GI50 [13] | reduction by ascorbic acid (1H and 195Pt NMR) [14]
1 | CC(=O)Oc1ccccc1C(=O)[O-].Cc1c(C)c2cccnc2c2ncccc12.N[C@H]1CCCC[C@@H]1N.O=[N+]([O-])[O-].O=[N+]([O-])[O-].[OH-].[Pt+4] [compound 4, [Pt(56Me2Phen)(SSDACH)(Aspirin)(OH)](NO3)2] | 9 ± 2 nM | 24 nM | 0.65 | 12 nM | 63 ± 6 nM | 3 nM | 31 nM | 98 ± 21 nM | 7 ± 1 nM | 8 ± 1 nM | 36 ± 10 nM | 22 nM | 15 ± 1 nM | –
2 | COc1ccc2c(c1)c(CC(=O)[O][Pt-2]13([OH])([NH2+]C4CCCCC4[NH2+]1)[n+]1cccc4ccc5ccc[n+]3c5c41)c(C)n2C(=O)c1ccc(Cl)cc1.O=[N+]([O-])[O-].O=[N+]([O-])[O-] (centres unmarked) [compound 1, [Pt(Phen)(SSDACH)(Indomethacin)(OH)](NO3)2] | 340 ± 100 nM | – | 1.08 | 350 ± 81 nM | 970 ± 290 nM | 160 ± 54 nM | 400 ± 84 nM | – | 83 ± 40 nM | 330 nM | 740 ± 230 nM | 390 ± 87 nM | 370 ± 55 nM | –
3 | [Pt(Phen)(SSDACH)(Aspirin)(OH)](NO3)2 [compound 3] | 210 ± 29 nM | 600 ± 60 nM | 0.41 | 200 nM | 360 ± 60 nM | 140 ± 10 nM | 670 ± 100 nM | 620 ± 90 nM | 140 ± 10 nM | 160 ± 30 nM | 390 ± 80 nM | 260 ± 30 nM | 350 ± 20 nM | reduction to its platinum(II) congener
